Assay results published in patent publication US20230123334A1, “AMINO LIPID COMPOUND, PREPARATION METHOD THEREFOR, AND APPLICATION THEREOF” (SHENZHEN SHENXIN BIOTECHNOLOGY CO., LTD., priority 2020, published 2023).

System: HEK293 cells
Experiment: Preliminary screening as DNA vectors, GFP transfection of HEK293 cells
Format: cell-based
Description: Cell line: HEK293 cells (ATCC CRL-1573™)
Medium: DMEM supplemented with 10% fetal bovine serum (Invitrogen)
Mode of screening: cell transfection on 96-well plates
Detection (readout): percentage of the number of GFP fluorescent cells relative to the total number of cells (the total number of cells was measured using nucleus dye Hoechst—see FIG. 2). Lipofectamine2000 (Invitrogen) was used as positive control, according to the manufacturer's instructions.
Method: an 8-channel pipette was used for sample addition. The contents shown were for a single well of a 96-well flat plate.
1. The compound (0.01 mmol) prepared in Example 1 was dissolved in 1 mL of anhydrous ethanol. After ultrasonically dissolved, 10 μL of the resultant amino lipid solution in ethanol was taken and mixed with 5 μL of DOPE solution in ethanol (0.01 m), and then to the obtained mixture was added 35 μL of 0.2M sodium acetate buffer (pH 5.6), and 50 μL of liposome solution was prepared by vortex at a constant rotating speed for 30 s. 4 μL was taken from the 50 μL liposome solution and added to 46 μL of 0.02M sodium acetate buffer (pH 5.6), and the final liposome solution was formed by vortex at a constant rotating speed for 30 s. 5 μL was taken from the final liposome solution and mixed with 75 ng plasmid DNA (psin-EGFP-IRES-Puro, Clontech) dissolved in 5 μL of 0.02 M sodium acetate buffer, and was allowed to stay at room temperature for 30 min to form a lipid/DNA transfection complex.
2. 10 μL of the lipid/DNA transfection complex was incubated at room temperature for 30 min, followed by addition of 90 μL of fresh resuspended cells (3-5×10^4 cells) and mixing with a pipette. 100 μL of cells+lipid/DNA complex was transferred to separate wells of a 96-well culture plate immediately, and placed in an incubator containing 5% CO2 at 37° C.
3. Hoechst33258 (Invitrogen) was added at a final concentration of 0.2 μg/mL to the cells 20 to 24 hours after initial cell transfection, and cultured in darkness at 37° C. for 15 min. Afterwards, the cells were washed once with a PBS solution, and then added with medium for culture for 20 to 24 h.
4. The cells were placed in a high-throughput confocal microscope (Molecular Devices ImageXpress), and four visual fields of the image of the cells were captured for each well, and images at three laser wavelengths were captured for each sample: bright field images of cells (FIG. 2(a) and FIG. 2(b)), Hoechst-staining images showing total nuclei (FIG. 2(c) and FIG. 2(d)) and GFP images showing success in transfection with the plasmid DNA and the expression of GFP (FIG. 2(e) and FIG. 2(f)). MetaXpress software was used to separately count the cells in the Hoechst-staining images and GFP images, and then the number of cells expressing GFP was divided by the total number of nuclei to give the absolute cell transfection efficiency. The absolute transfection efficiency was calculated as follows: […]

[1] = amino lipid/DOPE liposome with 75 ng plasmid DNA (psin-EGFP-IRES-Puro), number of GFP-expressing cells divided by total nuclei (Hoechst)

Row | SMILES | Absolute DNA transfection efficiency in HEK293 cells [1] | Absolute DNA transfection efficiency in HEK293 cells (HEK293 cells, lipid/DOPE liposome with 75 ng plasmid DNA (psin-EGFP-IRES-Puro), number of cells expressing GFP divided by total number of nuclei (Hoechst))
1 | CCCCCCCCCCCCNc1nc(NCC2CCN(C)CC2)nc(SCCCCCCC)n1 [S7N12 D10] | 45.7% | –
2 | CCCCCCCCCCCCCCCCSc1nc(NCCCCCCCCC)nc(NCCCN2CCN(C)CC2)n1 [S16N9 D9] | 9.5% | –
3 | CCCCCCCCCCCCCCCSc1nc(NCCCCCCCCCCC)nc(NCC2CCN(C)CC2)n1 [S15N11 D10] | 16.6% | –
4 | CCCCCCCCCNc1nc(NCCN2CCCCC2)nc(SCCCCCC)n1 [S6N9 D4] | 0.4% | –
5 | CCCCCCCCCCCCSc1nc(NCCN2CCOCC2)nc(SCCCCCC)n1 [S6S12 D2] | 5.0% | –
6 | CCCCCCCCCCCCCCCSc1nc(NCCCCCCCCCCCCC)nc(NCCN2CCN(C)CC2)n1 [S15N13 D5] | 1.9% | –
7 | CCCCCCCCCCCCCCCSc1nc(NCCCCCC)nc(NCCN(C)C)n1 [S15N6 D1] | 21.2% | –
8 | CCCCCCCCNc1nc(NCCCN(C)C)nc(SCCCCCCC)n1 [S7N8 D6] | 22.3% | –
9 | CCCCCCCCCCCNc1nc(NCCCN2CCN(C)CC2)nc(SCCCCCCCC)n1 [S8N11 D9] | 63.6% | –
10 | CCCCCCCCCCCCCCSc1nc(NCCCCCCCCC)nc(NCCN2CCOCC2)n1 [S14N9 D2] | 9.7% | –
11 | CCCCCCCCCCCCCCCCCCNc1nc(NCCCN2CCOCC2)nc(SCCCCCCCCCCCCCCCCCC)n1 [S18N18 D8] | 0.0% | –
12 | CCCCCCCCCNc1nc(NCCCN(C)C)nc(SCCCCCCCC)n1 [S8N9 D6] | 33.3% | –
13 | CCCCCCCCCCCSc1nc(NCCCCCCCC)nc(NCCCN(C)C)n1 [S11N8 D6] | 36.9% | –
14 | CCCCCCCCCCCCCCCSc1nc(NCCN(CC)CC)nc(SCCCCCC)n1 [S6S15 D7] | 3.3% | –
15 | CCCCCCCCCCCCCCCSc1nc(NCCCCCCCCCCC)nc(NCCN2CCCCC2)n1 [S15N11 D4] | 8.9% | –
16 | CCCCCCCCCCSc1nc(NCCCCCCCCC)nc(NCCN2CCN(C)CC2)n1 [S10N9 D5] | 11.9% | –
17 | CCCCCCCCCCCCCNc1nc(NCCCN2CCOCC2)nc(SCCCCCCCC)n1 [S8N13 D8] | 13.3% | –
18 | CCCCCCCCCCCCCCCCCCSc1nc(NCCCCCCCCCCC)nc(NCCN2CCOCC2)n1 [S18N11 D2] | 1.4% | –
19 | CCCCCCCNc1nc(NCCN2CCCCC2)nc(SCCCCCCC)n1 [S7N7 D4] | 11.3% | –
20 | CCCCCCCCCCCSc1nc(NCCCCCCCCC)nc(NCCCN2CCOCC2)n1 [S11N9 D8] | 8.6% | –

Row | SMILES | Absolute DNA transfection efficiency in HEK293 cells [1] | Absolute DNA transfection efficiency in HEK293 cells (HEK293 cells, lipid/DOPE liposome with 75 ng plasmid DNA (psin-EGFP-IRES-Puro), number of cells expressing GFP divided by total number of nuclei (Hoechst))
21 | CCCCCCCCCCCCCCCCCCNc1nc(NCCN2CCCC2)nc(SCCCCCCCCCCC)n1 [S11N18 D3] | 32.1% | –
22 | CCCCCCCCCCCCCCCCCCSc1nc(NCCCCCCCCCCCCCCC)nc(NCCCN2CCOCC2)n1 [S18N15 D8] | 0.0% | –
23 | CCCCCCCCCCCCSc1nc(NCC2CCN(C)CC2)nc(SCCCCCCC)n1 [S7S12 D10] | 21.3% | –
24 | CCCCCCCCCCSc1nc(NCC2CCN(C)CC2)nc(SCCCCCCCC)n1 [S8S10 D10] | 26.2% | –
25 | CCCCCCCCCCCCNc1nc(NCCCN2CCN(C)CC2)nc(SCCCCCCCCCCCC)n1 [S12N12 D9] | 5.1% | –
26 | CCCCCCCCCCCCCCCCSc1nc(NCCN2CCOCC2)nc(SCCCCCCC)n1 [S7S16 D2] | 17.6% | –
27 | CCCCCCCCCCCCCCCCSc1nc(NCCCCCCCCCCCC)nc(NCCN2CCCCC2)n1 [S16N12 D4] | 0.0% | –
28 | CCCCCCCCNc1nc(NCCCN2CCOCC2)nc(SCCCCCC)n1 [S6N8 D8] | 0.0% | –
29 | CCCCCCCCCCCCSc1nc(NCCCN2CCN(C)CC2)nc(N(CCCCCCCCCCCC)CCCCCCCCCCCC)n1 [S12^2N12 D9] | 0.1% | –
30 | CCCCCCCCCCCCCCCCCCSc1nc(NCCN(CC)CC)nc(N(CCCCCCCCCCCC)CCCCCCCCCCCC)n1 [S18^2N12 D7] | 0.0% | –
31 | CCCCCCCCCCCCN(CCCCCCCCCCCC)c1nc(NCCCN2CCN(C)CC2)nc(SCCCCCCC)n1 [S7^2N12 D9] | 0.3% | –
32 | CCCCCCCCCCCCCCSc1nc(NCCCCCCCC)nc(NCCN2CCCC2)n1 [S14N8 D3] | 24.4% | –
33 | CCCCCCCCCCCCCCCCNc1nc(NCCCN2CCOCC2)nc(SCCCCCCCCCCCCCC)n1 [S14N16 D8] | 0.1% | –
34 | CCCCCCCCCCCCCCCNc1nc(NCCN2CCCCC2)nc(SCCCCCCCC)n1 [S8N15 D4] | 0.9% | –
35 | CCCCCCCCCCCCN(CCCCCCCCCCCC)c1nc(NCCCCCCCCCCC)nc(NCCCN2CCOCC2)n1 [Compound N112N12D8] | – | 0.0%
36 | CCCCCCCCCCCCCCCSc1nc(NCCCCCCCC)nc(NCCN2CCCC2)n1 [S15N8 D3] | 12.7% | –
37 | CCCCCCCCCCCCCCCCCCSc1nc(NCCCN2CCN(C)CC2)nc(SCCCCCC)n1 [S6S18 D9] | 8.7% | –
38 | CCCCCCCCSc1nc(NCCN2CCN(C)CC2)nc(SCCCCCCCC)n1 [S8S8 D5] | 10.2% | –
39 | CCCCCCCCCCSc1nc(NCC2CCN(C)CC2)nc(SCCCCCCC)n1 [S7S10 D10] | 25.2% | –
40 | CCCCCCCCCCCCCCCCNc1nc(NCCCN2CCOCC2)nc(SCCCCCCCCCCCCCCCC)n1 [S16N16 D8] | 0.0% | –

Row | SMILES | Absolute DNA transfection efficiency in HEK293 cells [1] | Absolute DNA transfection efficiency in HEK293 cells (HEK293 cells, lipid/DOPE liposome with 75 ng plasmid DNA (psin-EGFP-IRES-Puro), number of cells expressing GFP divided by total number of nuclei (Hoechst))
41 | CCCCCCCCCCCCCCCCSc1nc(NCCCCCCCCCCCCCCC)nc(NCCN(C)C)n1 [S16N15 D1] | 1.6% | –
42 | CCCCCCCCCCCCN(CCCCCCCCCCCC)c1nc(NCC2CCN(C)CC2)nc(SCCCCCCC)n1 [S7^2N12 D10] | 0.5% | –
43 | CCCCCCCCCCCSc1nc(NCCN(CC)CC)nc(SCCCCCCCC)n1 [S8S11 D7] | 10.3% | –
44 | CCCCCCCCCCCCSc1nc(NCCCCCCCCC)nc(NCCN2CCN(C)CC2)n1 [S12N9 D5] | 20.2% | –
45 | CCCCCCCCCCCCCNc1nc(NCCN2CCCC2)nc(SCCCCCCCCC)n1 [S9N13 D3] | 31.6% | –
46 | CCCCCCCCCCCCCCCCNc1nc(NCCN2CCOCC2)nc(SCCCCCCCCC)n1 [S9N16 D2] | 23.5% | –
47 | CCCCCCCCCCCNc1nc(NCCN2CCOCC2)nc(SCCCCCCCCCC)n1 [S10N11 D2] | 1.5% | –
48 | CCCCCCCCCCCCCCCCNc1nc(NCC2CCN(C)CC2)nc(SCCCCCCCC)n1 [S8N16 D10] | 13.4% | –
49 | CCCCCCCCCCCCCCCCCCSc1nc(NCCCCCCCCC)nc(NCCN(CC)CC)n1 [S18N9 D7] | 6.7% | –
50 | CCCCCCCCCCCCCCCCCCNc1nc(NCCN2CCN(C)CC2)nc(SCCCCCCCCCC)n1 [S10N18 D5] | 1.8% | –
51 | CCCCCCCCCCCCCCCCNc1nc(NCCCN2CCN(C)CC2)nc(SCCCCCCCCCCCCCCCC)n1 [S16N16 D9] | 0.0% | –
52 | CCCCCCCCCCCCCCCCSc1nc(NCCCCCCCCCCC)nc(NCCN(CC)CC)n1 [S16N11 D7] | 15.5% | –
53 | CCCCCCCCCCCCCNc1nc(NCCCN(C)C)nc(SCCCCCCC)n1 [S7N13 D6] | 43.2% | –
54 | CCCCCCCCCCCCCCCSc1nc(NCCCCCCCCC)nc(NCCN(CC)CC)n1 [S15N9 D7] | 16.4% | –
55 | CCCCCCCCCCCSc1nc(NCCCCCCCC)nc(NCCCN2CCN(C)CC2)n1 [S11N8 D9] | 23.6% | –
56 | CCCCCCCCCCCCCCCCSc1nc(NCCCCCCCCCCCCCCC)nc(NCCCN2CCN(C)CC2)n1 [S16N15 D9] | 0.3% | –
57 | CCCCCCCCCCCCSc1nc(NCCCCCC)nc(NCCCN(C)C)n1 [S12N6 D6] | 1.1% | –
58 | CCCCCCCCCCCCSc1nc(NCCN2CCOCC2)nc(SCCCCCCCC)n1 [S8S12 D2] | 16.1% | –
